In article PMC10120463 (Journal of Enzyme Inhibition and Medicinal Chemistry, 2023):

Assay: Haemolysis assay
Assay type: cell-based
Conditions: rabbit, rabbit red blood cell suspension

Q: Which hemolysis at 1 h, 32 µg/mL does the source give for `C[C@@H]1[C@H](O)[C@@H](C)/C=C/C=C/C=C/C=C/C=C/C=C/C=C/[C@H](O[C@@H]2O[C@H](C)[C@@H](O)[C@H](N)[C@@H]2O)C[C@@H]2O[C@](O)(C[C@@H](O)C[C@@H](O)[C@H](O)CC[C@@H](O)C[C@@H](O)CC(=O)O[C@H]1C)C[C@H](O)[C@H]2C(=O)O` [AmB, amphotericin B] here?
A: 53.5%
